Like-named read-outs stand apart in the source and are kept apart here.
What was measured:
[1] = test system: test organisms (Bacillus cereus, Staphylococcus aureus, Salmonella typhimurium, Escherichia coli, Saccharomyces cerevisiae, bacteriophage); conditions: for effect on viable count of test organisms: 5 kg meat
[2] = test system: S. aureus
[3] = test system: S. typhimurium
[4] = test system: E. coli
[5] = test system: mesophilic organisms
[6] = test system: S. cerevisiae
[7] = test system: model prion protein; conditions: T5 protocol; 5 g meat, 20% moisture, 100 ug model prion protein

Compound: OO [gaseous hydrogen peroxide, hydrogen peroxide]
- effect on viable count of test organisms ([1]; trial T1: 30 ml 30% (v/v) H2O2 vaporised, 2.6 g/kg, 0.01 g/kg/s, 30 minutes contact, about 0.01 kPa): little or no effect
- effect on viable count of test organisms ([1]; trial T2: 60 ml 30% (v/v) H2O2 vaporised, 0.01 g/kg/s, 30 minutes contact): little or no effect
- effect on the organisms ([1]; trial T3: 90 ml 30% (v/v) H2O2, 7.9 g/kg meat, 0.01 g/kg/s, 30 minutes contact): significant effect
- inactivation compared with T3 on increasing the contact rate ([1]; trial T5: 30 ml introduced rapidly over about 5 seconds (0.5 g/kg/s), then 60 ml at 0.01 g/kg/s): enhanced
- effect on viable count [2]: elimination
- effect on viable count [3]: elimination
- effect on viable count [4]: elimination
- effect on viable count [5]: elimination
- inactivation of S. cerevisiae [6]: particularly striking effect
- prion content after treatment versus positive control [7]: significantly destroyed
